In patent EP3685668B1, “COMPOSITION COMPRISING ACIBENZOLAR-S-METHYL AS EFFECTIVE INGREDIENT FOR CONTROLLING BURSAPHELENCHUS XYLOPHILUS DISEASE AND METHOD FOR CONTROLLING BURSAPHELENCHUS XYLOPHILUS USING SAME” (Industry Foundation of Chonnam National University, priority 2017, dated 2019):

Experiments:
Hydroxyproline = assay: qRT-PCR expression of induced resistance gene in pine tree callus; format: cell-based; conditions: concentration series, 200 µg/mℓ
Description: (§1) For in vitro analysis of induced resistance, the expression of PR genes and other plant defense-related genes was determined, which are evolved in various defense mechanisms including induced resistance. The primers of sixteen induced resistance-related genes of pine tree used in this invention were listed in the below and elongation factor_1 alpha were used as a reference gene. [Table 4] The primer list of defense resistance-related genes
(§2) After the treatment with 200 µg / mℓ of candidates of the selected induced resistance material, expression of the induced resistance-related gene in pine callus was determined by qRT-PCR using the primer pairs of defense resistance-related genes in Table 4. As a candidate group of an induced resistance material in pine tree, acibenzolar-S-methyl (ASM), TDL (Tiadinil), ITL (Isotianil), PBZ (Probenzole), AZO (Azoxystrobin), VMA (Validamycin A), MeJA (Methyl jasmonate), BABA (DL-3-aminobutyric acid), 2,3-BDO (2,3-Butanediol), GABA (r-Aminobutyric acid), glucan (Glucan), ER (Ergosterol), and AZA (Azelaic acid) were used. For the in vitro analysis of the expression of induced resistance gene in pine callus, the selected induced resistance materials were applied with 500 µℓ of LM liquid medium on a surface of pine tree callus (100 mg) in 12-well microplate to give final concentration of 200 µg/mℓ. Then, the callus surface was sufficiently reacted for 24 hours with the candidate of pine tree induced resistance material by shaking at 50 rpm in a 25 °C shaking incubator under dark condition. RNAs were extracted from the callus after completion of the reaction with an induced resistance material, followed by synthesis of cDNAs. Then, by carrying out qRT-PCR, the expression of induced resistance genes was determined. [Table 5] Expression of induced resistance gene in pine tree callus by TDL, PBZ, ASM, ITL, AZO, VMA, glucan, and AZA
(§3) Based on the results of assay using young plants and gene expression by selected induce resistance materials, it seemed that acibenzolar-S-methyl had the most excellent effect. Thus, the following tests were carried out using acibenzolar-S-methyl only. Expression of the induced resistance genes at different culture time after the chemical treatment was examined. For the in vitro assay, LM medium containing pine tree callus was treated with acibenzolar-S-methyl at concentration of 200 µg / mℓ, followed by reaction for 1 day, 7 days, or 14 days in a 25°C shaking incubator under dark condition. RNAs were extracted from the callus after the reaction followed by synthesis of cDNAs. Then, by carrying out qRT-PCR, the expression of the induced resistance genes was determined. Depending on reaction time after the treatment, i.e., after 1 day, 7 days, or 14 days, the expression of the obtained induced resistance genes was examined. As a result of the in vitro callus assay depending on reaction time after the treatment with acibenzolar-S-methyl, the expression of the induced resistance-related genes is the highest at 1 day after the treatment with acibenzolar-S-methyl and gradually diminished over time, as it is shown in Table 7. In this regard, it is contemplated that the expression of genes acquired by acibenzolar-S-methyl is not maintained in highly expressed state until the pathogen invasion and just memorized with at minimum level so that the energy consumption by plant can be efficiently managed. [Table 7] Expression of induced resistance gene in pine tree callus by acibenzolar-S-methyl depending on reaction time
(§4) To have an in vitro assay according to different methods of treatment with acibenzolar-S-methyl, two separate treatment methods, i.e., surface treatment (spraying treatment) of pine tree callus and direct application of the induced resistance material to an LM medium containing pine tree callus, were performed. […]

PR_2 family = assay: as above; format: cell-based; conditions: for Expression of induced resistance gene, PR_2 family: 24 hours
Description: as §1, §2, §3, §4

Metallothionein = assay: as above; format: cell-based; conditions: for Expression of induced resistance gene, Metallothionein: 24 hours
Description: as §1, §2, §3, §4

PR_1b family = assay: as above; format: cell-based; conditions: 200 µg/mℓ; for Expression of induced resistance gene, PR_1b family: 24 hours
Description: as §1, §2, §3, §4

PR_4 family = assay: as above; format: cell-based; conditions: for Expression of induced resistance gene, PR_4 family: 24 hours
Description: as §1, §2, §3, §4

Extensin = assay: as above; format: cell-based; conditions: for Expression of induced resistance gene, Extensin: 24 hours
Description: as §1, §2, §3, §4

[1] = test system: Bursaphelenchus xylophilus; assay: Occurrence of pine wilt disease after trunk injection of induced resistance candidate materials, in vivo test in young red pine trees; conditions: red pine tree (Pinus densiflora), 30 days after inoculation; for Occurrence rate of pine wilt disease: Number of pine trees showing wilt symptoms / Number of pine trees used for the test: trunk injection 100 µℓ per tree; for Number of pine trees showing wilt symptoms only at growing points of a stem: trunk injection
Description: By using the 15 types of an induced resistance elicitors which have been known to induce the plant resistance against various diseases as candidates, their controlling effect against pine wilt disease was examined. The control efficacy of candidates against pine wilt disease was analyzed according to an in vivo test using red pine tree (Pinus densiflora) which was 2-year old young pine trees (diameter of 5.5 mm or so, and height of about 35 mm).
As a candidate group of an induced resistance material, two kinds of acibenzolar-S-methyl (ASM), TDL (Tiadinil), ITL (Isotianil), PBZ (Probenzole), AZO (Azoxystrobin), VMA (Validamycin A), MeJA (Methyl jasmonate), BABA (DL-3-aminobutyric acid), 2,3-BDO (2,3-Butanediol), SA (salicyclic acid), GABA (r-Aminobutyric acid), glucan (Glucan), ER (Ergosterol), and AZA (Azelaic acid) were used. Only the use of acibenzolar-S-methyl is according to the invention. Injection of the chemicals was carried out by trunk injection method, i.e., at an angle of 45°, a borehole was created by using an electric drill with thickness of 1.5 mm on a pine stem part that is 5 to 10 cm above the soil surface, a tip (200 µℓ) was inserted to the hole, and, after dissolving the candidate material at concentration level of 200, 20, or 2 µg/mℓ in each solvent, the solution was injected in an amount of 100 µℓ per pine tree. After the injection of the chemical agent, the end part of the tip was sealed with parafilm.
The pine tree wilt nematodes (Bursaphelenchus xylophilus, National Institute of Forest Science (NIFoS), South Korea) was incubated at 25°C by feeding them with Botrytis cinerea, which have been cultured on a potato dextrose agar (PDA) medium, and after one week incubation, they were collected by Baermann funnel method and were adjusted to the level of 20,000 worms/mℓ by examining the number of the worms under an optical microscope. One week after the chemical treatment, the inoculation of the pine tree wilt nematodes was carried out by tree barking inoculation of 100 µℓ, i.e., 2,000 worms, per tree, and the result was determined 30 days after the inoculation. […] [Table 1] Occurrence rate of pine wilt disease in candidate group of induced resistance materials

[2] = 200 µg/mℓ, Direct supplying as a medium component
[3] = concentration series, 200 µg/mℓ

Structure (SMILES): CSC(=O)c1cccc2nnsc12 [ASM, acibenzolar-S-methyl]
- Gene expression level, Hydroxyproline (Hydroxyproline): 4.627
- Expression of induced resistance gene, PR_2 family (PR_2 family; 200 µg/mℓ): 1.65
- Expression of induced resistance gene, PR_2 family (PR_2 family; [2]): 5.5
- Expression of induced resistance gene, PR_2 family (PR_2 family; 200 µg/mℓ, Spraying): 1.65
- Gene expression level, PR_2 family (PR_2 family; 200 µg/mℓ, After 1 day): 5.5
- Gene expression level, PR_2 family (PR_2 family; 200 µg/mℓ, After 7 days): 0.97
- Gene expression level, PR_2 family (PR_2 family; 200 µg/mℓ, After 14 days): 0.42
- Gene expression level, PR_2 family (PR_2 family; concentration series, 20 µg/mℓ): 2.694
- Gene expression level, PR_2 family (PR_2 family; [3]): 1.117
- Expression of induced resistance gene, Metallothionein (Metallothionein; 200 µg/mℓ): 0.11
- Expression of induced resistance gene, Metallothionein (Metallothionein; [2]): 29.86
- Expression of induced resistance gene, Metallothionein (Metallothionein; 200 µg/mℓ, Spraying): 0.11
- Gene expression level, Metallothionein (Metallothionein; 200 µg/mℓ, After 1 day): 7.89
- Gene expression level, Metallothionein (Metallothionein; 200 µg/mℓ, After 7 days): 0.41
- Gene expression level, Metallothionein (Metallothionein; 200 µg/mℓ, After 14 days): 0.29
- Gene expression level, Metallothionein (Metallothionein; concentration series, 2 µg/mℓ): 0.5946
- Gene expression level, Metallothionein (Metallothionein; concentration series, 20 µg/mℓ): 0.79
- Gene expression level, Metallothionein (Metallothionein; [3]): 0.9266
- Expression of induced resistance gene, PR_1b family (PR_1b family): 2
- Expression of induced resistance gene, PR_1b family (PR_1b family; Direct supplying as a medium component): 6.28
- Expression of induced resistance gene, PR_1b family (PR_1b family; Spraying): 2
- Gene expression level, PR_1b family (PR_1b family; After 1 day): 6.28
- Gene expression level, PR_1b family (PR_1b family; After 7 days): 0.72
- Gene expression level, PR_1b family (PR_1b family; After 14 days): 0.4
- Gene expression level, PR_1b family (PR_1b family; concentration series): 0.9395
- Expression of induced resistance gene, PR_4 family (PR_4 family; 200 µg/mℓ): 2.6
- Expression of induced resistance gene, PR_4 family (PR_4 family; [2]): 5.46
- Expression of induced resistance gene, PR_4 family (PR_4 family; 200 µg/mℓ, Spraying): 2.6
- Gene expression level, PR_4 family (PR_4 family; 200 µg/mℓ, After 1 day): 5.46
- Gene expression level, PR_4 family (PR_4 family; 200 µg/mℓ, After 7 days): 0.74
- Gene expression level, PR_4 family (PR_4 family; 200 µg/mℓ, After 14 days): 0.2
- Gene expression level, PR_4 family (PR_4 family; concentration series, 2 µg/mℓ): 2.25
- Gene expression level, PR_4 family (PR_4 family; concentration series, 20 µg/mℓ): 2.056
- Gene expression level, PR_4 family (PR_4 family; [3]): 1.24
- Expression of induced resistance gene, Extensin (Extensin; 200 µg/mℓ): 2.1
- Expression of induced resistance gene, Extensin (Extensin; [2]): 2.27
- Expression of induced resistance gene, Extensin (Extensin; 200 µg/mℓ, Spraying): 2.1
- Gene expression level, Extensin (Extensin; 200 µg/mℓ, After 1 day): 9.99
- Gene expression level, Extensin (Extensin; 200 µg/mℓ, After 7 days): 1.23
- Gene expression level, Extensin (Extensin; 200 µg/mℓ, After 14 days): 0.33
- Gene expression level, Extensin (Extensin; concentration series, 2 µg/mℓ): 0.9012
- Gene expression level, Extensin (Extensin; concentration series, 20 µg/mℓ): 1.385
- Gene expression level, Extensin (Extensin; [3]): 1.693
- Occurrence rate of pine wilt disease: Number of pine trees showing wilt symptoms / Number of pine trees used for the test ([1]; 2 µg/mℓ): 1/3
- Occurrence rate of pine wilt disease: Number of pine trees showing wilt symptoms / Number of pine trees used for the test ([1]; 20 µg/mℓ): 1/3
- Occurrence rate of pine wilt disease: Number of pine trees showing wilt symptoms / Number of pine trees used for the test ([1]; 200 µg/mℓ): 0/3
- Number of pine trees showing wilt symptoms only at growing points of a stem ([1]; 2 µg/mℓ): 1
- Number of pine trees showing wilt symptoms only at growing points of a stem ([1]; 20 µg/mℓ): 1
